This passage reports IC50 results from BindingDB's records for doi:10.7270/Q2F769ZM (The Scripps Research Institute Molecular Screening Center, 2007).

In one assay the target is Rho-associated protein kinase 2 (Homo sapiens, UniProt O75116). Put plainly: ROCK2 kinase inhibitor potency, dose response, biochemical, Kinase-Glo luminescence, S6 peptide, 1536-well (AID 644).
Chain of Rho-associated protein kinase 2 (O75116 whole entry): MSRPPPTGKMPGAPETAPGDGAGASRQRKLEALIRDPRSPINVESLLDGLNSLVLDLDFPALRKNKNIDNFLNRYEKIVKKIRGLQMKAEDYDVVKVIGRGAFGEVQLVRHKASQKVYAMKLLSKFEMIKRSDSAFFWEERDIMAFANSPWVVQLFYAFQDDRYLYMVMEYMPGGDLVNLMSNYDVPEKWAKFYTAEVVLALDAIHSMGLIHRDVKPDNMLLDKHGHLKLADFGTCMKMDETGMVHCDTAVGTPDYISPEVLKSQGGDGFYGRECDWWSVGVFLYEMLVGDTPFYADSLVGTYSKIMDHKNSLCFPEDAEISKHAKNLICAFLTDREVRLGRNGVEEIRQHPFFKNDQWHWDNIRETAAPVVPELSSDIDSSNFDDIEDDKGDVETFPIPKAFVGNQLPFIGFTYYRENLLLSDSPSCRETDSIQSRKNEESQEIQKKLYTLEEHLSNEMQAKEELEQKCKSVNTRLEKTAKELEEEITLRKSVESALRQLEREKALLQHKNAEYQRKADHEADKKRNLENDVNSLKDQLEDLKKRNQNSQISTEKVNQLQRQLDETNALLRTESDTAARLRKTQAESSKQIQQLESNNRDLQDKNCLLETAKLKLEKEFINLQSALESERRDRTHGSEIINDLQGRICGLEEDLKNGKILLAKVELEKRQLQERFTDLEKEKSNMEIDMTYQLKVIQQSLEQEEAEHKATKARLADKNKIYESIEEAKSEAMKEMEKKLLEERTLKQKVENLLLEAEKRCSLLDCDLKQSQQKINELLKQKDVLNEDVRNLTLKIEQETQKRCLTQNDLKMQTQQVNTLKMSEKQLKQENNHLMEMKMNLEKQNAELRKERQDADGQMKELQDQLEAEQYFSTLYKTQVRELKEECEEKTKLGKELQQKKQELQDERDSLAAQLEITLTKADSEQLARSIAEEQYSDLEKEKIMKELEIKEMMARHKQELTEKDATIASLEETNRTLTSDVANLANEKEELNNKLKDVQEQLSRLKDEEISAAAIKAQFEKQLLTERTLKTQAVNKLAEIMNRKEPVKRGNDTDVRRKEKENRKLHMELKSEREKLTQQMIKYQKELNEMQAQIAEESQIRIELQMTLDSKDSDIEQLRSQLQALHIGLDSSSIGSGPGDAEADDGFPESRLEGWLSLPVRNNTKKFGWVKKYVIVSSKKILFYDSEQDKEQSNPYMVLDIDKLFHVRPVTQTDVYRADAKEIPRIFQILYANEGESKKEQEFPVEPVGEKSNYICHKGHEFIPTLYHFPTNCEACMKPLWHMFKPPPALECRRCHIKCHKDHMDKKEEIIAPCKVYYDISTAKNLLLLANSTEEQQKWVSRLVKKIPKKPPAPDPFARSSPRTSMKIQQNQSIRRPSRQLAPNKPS
Details: not given
`Cn1c(CSCc2ccc(Cl)c(Cl)c2)nnc1SCC(=O)Nc1nccs1` [2-[(5-{[(3,4-dichlorobenzyl)thio]methyl}-4-methyl-4H-1,2,4-triazol-3-yl)thio]-N-1,3-thiazol-2-ylacetamide] gave an IC50 of more than 19.9 µM.

As to `CCN1C(=O)N(CC)C(O)(c2ccccc2)C1(O)c1ccccc1` (stereo unspecified) [1,3-diethyl-4,5-bis(oxidanyl)-4,5-diphenyl-imidazolidin-2-one], the IC50 is more than 59.6 µM.

On to `c1nc(N2CCOCC2)c2nc[nH]c2n1` [4-(7H-purin-6-yl)morpholine], for which the IC50 is 7.09 µM.

Consider `O=C(Nc1nc(-c2ccncc2)cs1)C1COc2ccccc2O1` (stereo unspecified), for which the IC50 is less than 0.00303 µM.

Compound `Cc1cc(N2CCOCC2)c2c(N)c(C)cc(C)c2n1` [(2,6,8-trimethyl-4-morpholino-5-quinolyl)amine] returned an IC50 of more than 59.6 µM.

As for `C1=C(c2ccccc2)CCN(c2[nH]cnc3ncnc2-3)C1` [SMR000017661], the IC50 is more than 19.9 µM.

With `Nc1ccc2cn[nH]c2c1`, the IC50 was more than 19.9 µM.

In turn, `O=c1ccc(=O)n2n1CC(O)C2` [2-hydroxy-2,3-dihydro-1H-pyrazolo[1,2-a]pyridazine-5,8-dione] returned an IC50 of more than 59.6 µM.

As for `CN1c2cccc3cccc(c23)C1N=O` (stereo unspecified) [1-Methyl-1H-benzo[cd]indol-2-one oxime], the IC50 was more than 19.9 µM.

`N#CC1C(=N)Oc2cc(O)ccc2C1c1ccncc1` (stereo unspecified) [2-amino-7-hydroxy-4-(4-pyridyl)-4H-chromene-3-carbonitrile] displayed an IC50 of 127 µM.

`COc1ccc2cc3c(N)c(C(=O)NCc4ccco4)sc3nc2c1` [3-Amino-7-methoxy-thieno[2,3-b]quinoline-2-carboxylic acid (furan-2-ylmethyl)-amide] showed a half-maximal inhibitory concentration (IC50) of more than 19.9 µM.

As for `O=C(Nn1c(=S)[nH]c2ccccc2c1=O)c1ccncc1`, the IC50 was more than 19.9 µM.

On to `C1=C(c2c[nH]c3ccccc23)CCNC1`, for which it took 2.53 µM to reach half-maximal inhibition (IC50).

`Cc1cc(C(=O)CN2C(=O)NC3(CCCCC3)C2=O)c(C)n1Cc1ccc2c(c1)OCO2` [3-[2-(2,5-dimethyl-1-piperonyl-pyrrol-3-yl)-2-keto-ethyl]-1,3-diazaspiro[4.5]decane-2,4-quinone] gave an IC50 of more than 59.6 µM.

Turning to `O=C(O)c1cc(NCc2ccc3c(c2)OCO3)ccc1N1CCOCC1` [2-morpholino-5-(piperonylamino)benzoic acid], the IC50 is more than 59.6 µM.

As for `COC(=O)c1sc2cnccc2c1N` [3-amino-2-thieno[2,3-c]pyridinecarboxylic acid methyl ester], the IC50 was 8.3 µM. That is a single-digit micromolar value.

`CCCCC(=O)Nc1ccc2c(c1)C(=O)NC2=O` [MLS000103070] came in with an IC50 of more than 19.9 µM.

`CC(=O)c1ccc(OCC(O)COc2ccc(C(C)=O)cc2)cc1` [1-[4-[3-(4-acetylphenoxy)-2-hydroxy-propoxy]phenyl]ethanone] came in with an IC50 of more than 59.6 µM.

In turn, `CCOC(=O)C1=C(CSc2nc(-c3ccncc3)ccc2C#N)OC(=N)C(C#N)C1c1cccnc1` (stereo unspecified) [6-amino-5-cyano-2-[[(3-cyano-6-pyridin-4-yl-2-pyridinyl)thio]methyl]-4-(3-pyridinyl)-4H-pyran-3-carboxylic acid ethyl ester] displayed an IC50 of more than 19.9 µM.

For the compound `Cc1cc(NC(=O)CSc2nc(-c3ccccc3)cs2)no1` [MLS000066259], the IC50 was more than 59.6 µM.

`Cc1c2ccncc2c(C)c2c1[nH]c1ccccc12` [5,11-dimethyl-2H-pyrido[4,3-b]carbazole] returned an IC50 of 6.68 µM.

Turning to `c1ccc2c(-c3ccncc3)c[nH]c2c1`, the IC50 was determined as 0.8 µM. This IC50 lies about 8.3-fold lower than the previous one.

Take `c1cc2c(cc1Nc1nc(-c3ccc4c(c3)OCO4)cs1)OCCO2` [4-(1,3-benzodioxol-5-yl)-N-(2,3-dihydro-1,4-benzodioxin-6-yl)-1,3-thiazol-2-amine]: the IC50 was more than 59.6 µM.

`c1coc(CNc2ncnc3sc4c(c23)CCCCC4)c1` [2-furfuryl(6,7,8,9-tetrahydro-5H-cyclohepta[4,5]thieno[1,2-c]pyrimidin-4-yl)amine]: the IC50 was more than 59.6 µM.

As to `Cc1cccc(N2CCN(C(=O)c3cn(C)c(=O)c4c3c3ccccc3n4C)CC2)c1C` [4-[4-(2,3-dimethylphenyl)piperazin-1-yl]carbonyl-2,9-dimethyl-pyrido[3,4-b]indol-1-one], the IC50 is more than 59.6 µM.

Still in this assay, the particulars now being: inactive by the depositor's call.
`Cc1ccc2c(c1)c1c3n2CCN(C(=O)Cn2c(-c4ccccc4)noc2=O)C3CCC1` (stereo unspecified) [4-[2-(8-Methyl-1,2,3a,4,5,6-hexahydro-pyrazino[3,2,1-jk]carbazol-3-yl)-2-oxo-ethyl]-3-phenyl-4H-[1,2,4]oxadiazol-5-one]: the IC50 was 18.8 µM. That is a double-digit micromolar value.

The compound `COCCN(CCOC)S(=O)(=O)c1ccc(C(=O)Nc2nc(-c3ccncc3)cs2)cc1` [4-[bis(2-methoxyethyl)sulfamoyl]-N-(4-pyridin-4-yl-1,3-thiazol-2-yl)benzamide] came in with an IC50 of 41.2 µM. This IC50 is about 2.2-fold higher than that of the compound before.

`O=C(Nc1ccc(N2CCOCC2)cc1)Nc1ccc2nc(-c3ccco3)c(-c3ccco3)nc2c1` [N-(2,3-di-2-furyl-6-quinoxalinyl)-N'-[4-(4-morpholinyl)phenyl]urea]: the IC50 is 25.6 µM.

With `CN1C(=O)CSc2ccc(NC(=O)NCc3cccnc3)cc21` [1-(3-keto-4-methyl-1,4-benzothiazin-6-yl)-3-(3-pyridylmethyl)urea], inhibition was half-maximal at 10.1 µM (IC50).

`Nc1ccc2[nH]ncc2c1`: the IC50 was determined as 12.9 µM.

In turn, `COC1(OC)N=C(N)C2(C#N)C(c3ccc4c(c3)OCO4)C12C#N` (stereo unspecified) displayed an IC50 of 47.9 µM.

With `CN(C)c1ccc(-c2ccncc2)cc1` [MLS000105960], the IC50 came to 31.8 µM.

On to `Cc1c(C(=O)Nc2ccc3oc(-c4cccnc4)nc3c2)oc2ccccc12` [3-Methyl-benzofuran-2-carboxylic acid (2-pyridin-3-yl-benzooxazol-5-yl)-amide], for which the IC50 was found to be 1010 µM.

On to `NC(=O)c1c(-c2cccs2)csc1N` [2-amino-4-(2-thienyl)thiophene-3-carboxamide], for which the IC50 is 19.5 µM.

The compound `N#Cc1cccc(NC(=O)NCCc2c[nH]c3ccccc23)c1` [SMR000096894] came in with an IC50 of 16.1 µM.

`Nc1ncnc2c1cnn2-c1ccccc1` [1-Phenyl-1H-pyrazolo[3,4-d]pyrimidin-4-ylamine] registered an IC50 of 20.5 µM.

For `Brc1ccc2[nH]ncc2c1`, the IC50 is 16.3 µM.

For `Cc1c(C)n(C)c2ccc(C(=O)NCc3cccs3)cc12` [1,2,3-trimethyl-N-(2-thenyl)indole-5-carboxamide], the half-maximal inhibitory concentration (IC50) worked out at 12 µM.

With `CC(=O)c1cc(C#N)c(SCc2ccncc2)nc1C` [5-acetyl-6-methyl-2-(4-pyridylmethylthio)nicotinonitrile], the IC50 turned out to be 12.3 µM.

The compound `c1nc(NC2CCCCC2)c2[nH]cnc2n1` [N-cyclohexyl-7H-purin-6-amine] had an IC50 of 15.3 µM.

Turning to `Nc1cccc2cnccc12` [isoquinolin-5-amine], the IC50 came out at 30.1 µM.
